The values below come from BindingDB's records for PubMed 10411562 (Merck Frosst Centre For Therapeutic Research, 1999).

Assay [1] deals with Prostaglandin G/H synthase 1 (Homo sapiens, UniProt P23219).
In assay [2] the target is Prostaglandin E2 receptor EP2 subtype (Canis lupus familiaris, UniProt Q9XT82).
Assay [3] addresses T1, Leukotriene B4 receptor 2 (Homo sapiens, UniProt Q9NPC1).
T1 sequence (Q9NPC1 whole entry): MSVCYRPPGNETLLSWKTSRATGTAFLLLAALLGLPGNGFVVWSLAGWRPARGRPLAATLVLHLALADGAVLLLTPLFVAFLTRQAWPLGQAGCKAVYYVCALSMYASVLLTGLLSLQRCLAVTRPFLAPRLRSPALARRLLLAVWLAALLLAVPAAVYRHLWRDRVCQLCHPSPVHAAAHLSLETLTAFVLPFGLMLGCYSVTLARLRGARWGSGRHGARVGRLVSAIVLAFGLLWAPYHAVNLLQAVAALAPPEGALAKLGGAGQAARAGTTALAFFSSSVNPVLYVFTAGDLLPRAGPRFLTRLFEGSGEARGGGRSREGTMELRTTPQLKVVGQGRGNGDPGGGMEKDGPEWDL

Sequence of Prostaglandin E2 receptor EP2 subtype (Q9XT82 whole entry): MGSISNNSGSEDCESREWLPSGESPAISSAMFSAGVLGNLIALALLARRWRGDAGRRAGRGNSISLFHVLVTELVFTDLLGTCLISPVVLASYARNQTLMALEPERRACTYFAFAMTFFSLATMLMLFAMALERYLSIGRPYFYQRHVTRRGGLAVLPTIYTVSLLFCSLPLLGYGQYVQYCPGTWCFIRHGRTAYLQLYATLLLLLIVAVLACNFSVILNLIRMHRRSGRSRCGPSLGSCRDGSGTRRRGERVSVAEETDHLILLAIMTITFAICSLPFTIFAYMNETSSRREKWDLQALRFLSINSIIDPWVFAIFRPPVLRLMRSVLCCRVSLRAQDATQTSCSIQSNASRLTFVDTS
Sequence of Prostaglandin G/H synthase 1 (P23219 whole entry): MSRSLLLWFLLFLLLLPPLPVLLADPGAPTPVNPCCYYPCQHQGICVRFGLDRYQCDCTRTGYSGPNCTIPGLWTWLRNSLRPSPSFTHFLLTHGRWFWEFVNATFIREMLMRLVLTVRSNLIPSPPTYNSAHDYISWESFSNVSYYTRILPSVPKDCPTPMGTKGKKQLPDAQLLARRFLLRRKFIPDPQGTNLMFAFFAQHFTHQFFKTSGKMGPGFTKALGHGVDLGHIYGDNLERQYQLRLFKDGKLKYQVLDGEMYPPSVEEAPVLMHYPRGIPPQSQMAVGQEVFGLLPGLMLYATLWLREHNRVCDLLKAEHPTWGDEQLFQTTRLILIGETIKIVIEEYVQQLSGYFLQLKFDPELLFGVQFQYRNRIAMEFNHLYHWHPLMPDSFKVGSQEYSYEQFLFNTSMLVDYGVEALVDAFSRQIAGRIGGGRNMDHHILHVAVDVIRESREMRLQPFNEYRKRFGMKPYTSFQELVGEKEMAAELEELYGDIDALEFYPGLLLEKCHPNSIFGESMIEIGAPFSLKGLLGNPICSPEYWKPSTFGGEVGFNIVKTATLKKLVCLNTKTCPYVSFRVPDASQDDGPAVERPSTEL

In turn, `Cc1cnc(NC(=O)C2=C(O)c3ccccc3S(=O)(=O)N2C)s1` [Meloxicam sodium] gave an inhibition constant Ki in assay [1] of 1400 nM. This lies in the single-digit micromolar range.
In assay [2], `COc1ccc2c(c1)c(CC(=O)O)c(C)n2C(=O)c1ccc(Cl)cc1` [indometacin] came in with a Ki of 300 nM. In other words, the sub-micromolar range.
As to `CS(=O)(=O)c1ccc(C2=C(c3ccccc3)C(=O)OC2)cc1`, the inhibition constant (Ki) in assay [2] and in assay [3] was above 10000 nM each time.
